Source: patent US20240209061A1, “FUSION PROTEINS AND USES THEREOF” (Pfizer Inc., priority 2020, published 2024)

Columns and labels:
[1] = system: CT26 murine colorectal carcinoma cells; test: CT26 colorectal carcinoma model, combination with αPD1 antibody; assay type: in vivo, mouse; details: for Day 13 tumor volume / % tumor growth inhibition: αPD1 Ab 10 mg/kg where combined; for % tumor growth inhibition: Day 13
Protocol: CT26 murine colorectal carcinoma cells (1×10^6) were subcutaneously implanted in the hind flank of female Balb/c mice. When tumors reached ˜100 mm3 (day 8 after implantation), mice were randomized and dosed with PBS vehicle control, 0.1 mg/kg CD80-D90Q-Fc, and/or 10 mg/kg murine αPD1 antibody. CD80-D90Q-Fc was dosed on Days 0 and 3, αPD1 antibody was dosed on Days 0, 3 and 6. Tumor volume was determined by caliper measurements obtained in 2 dimensions and calculated as width^2×length/2. Error bars are depicted as ±SEM
IFNγ ELIspot was used to measure tumor-reactive T cells in the spleen and TDLNs in mice treated with 1 mg/kg D90Q, αPD1 Ab, or the combination. […] The combination led to an even higher amount of tumor-reactive T cells in the TDLN compared to either agent alone.

human PBMCs (T cells) = test: Co-stimulation of primary human T cells with CEFT peptide; assay type: cell-based
Protocol: Serial, 3-fold dilutions of CD80-K89D-D90K-T28V-T57V-Fc and CD80-WT-Fc were prepared in complete IMDM medium (10% FBS, 1% Pen/Strep). CEFT peptide (PM-CEFT, JPT Peptide Technologies) was reconstituted in the same medium to the final concentration of 1 μg/ml. Frozen human PBMCs were thawed following a standard protocol and 250,000 were seeded per well of flat bottom 96-wells plates. CEFT peptide and appropriate concentration of the CD80-Fc fusion proteins were added to the cell suspension. Plates were sealed with breathable plate sealers and incubated for 72 hours at 37° C. in a CO2 incubator. Six hours prior to cell harvest, culture supernatants were collected and stored at −20° C. until used for cytokine analysis by MSD (V-Plex pro-inflammatory panel human kit, Meso Scale Discovery). At the same time brefeldin A solution was added to the cells, to enable intracellular accumulation of cytokines for evaluation by flow cytometry. Upon harvest, cells were stained for surface (among others CD25) and intracellular markers (among others Ki-67 and IFNγ) following a standard flow cytometry staining protocol. Data was collected using BD LSR Fortessa and analyzed using FlowJo v10 software.

[2] = system: EMT6 murine breast cancer cells; test: EMT6 murine breast cancer model; assay type: in vivo, mouse; details: for Day 17 tumor volume: Days 0 and 3; for % tumor growth inhibition: Day 17; for # IFNγ-producing spots, Spleen / # IFNγ-producing spots, TDLN: average of n = 4 mice; for CD8^+ T cell infiltrates (% CD45): EMT6, n=4
Protocol: EMT6 murine breast cancer cells (3×10^5) were orthotopically implanted in the mammary fat pad of female Balb/c mice. When tumors reached ˜90 mm^3 (day 5 after implantation), mice were randomized. PBS vehicle control or variant CD80-Fc fusion proteins were dosed intravenously at 0.01, 0.1, 1.0 and 3.0 mg/kg on Days 0 and 3. Tumor volume was determined by caliper measurements obtained in 2 dimensions and calculated as width^2×length/2. Error bars are depicted as ±SEM.
Tumor-reactive T cells in the spleen and tumor-draining lymph nodes (TDLNs) were measured by IFNγ ELIspot in mice treated with CD80-K89D-D90K-T28V-T57V-Fc.
Cytotoxic CD8^+ T cells are responsible for killing cancer cells and the measurement of CD8^+ T cells that have infiltrated tumors commonly correlates with efficacy for immune-oncology therapies. For all in vivo studies, tumors were collected ˜1 week after the first dose and dissociated by mincing, followed by incubation in an enzymatic digestion cocktail and homogenization. The resulting cell suspension was filtered and washed, and single cells were stained with antibodies to CD45, CD8, and a viability dye to detect tumor-infiltrating lymphocytes (TILs) by flow cytometry. Data were acquired on a BD LSRFortessa flow cytometer or a Cytek Aurora spectral flow cytometer. Table 31 and FIG. 18 show the amount of tumor-infiltrating CD8+ T cells expressed as a percentage of total immune cells (CD45+). Each value is the average of n=4 mice per group. Treatment with all variant CD80-Fc fusion proteins led to increase in CD8+ TILs in various tumor models.

[3] = mouse, in vivo, iv, 0.1 mg/kg
Protocol: PK of CD80-Fc fusion proteins was also assessed in transgenic mice expressing the human neonatal Fc receptor (huFcRn) a-chain transgene under the control of its natural human promoter. Female mice were dosed intravenously with CD80-Fc fusion proteins at 0.1 mg/kg, and blood was collected at the timepoints indicated on the graph. Levels of CD80-Fc in mouse plasma were measured as described above.

CD3+ T cells from PBMCs = test: Gene expression pattern in primary human T cells (Nanostring); assay type: cell-based; details: with anti-human CD3 antibody; 24 hour
Protocol: 96-well plates were coated overnight with 1 μg/ml of anti-human CD3 antibody (HIT3a clone, BioLegend). The following day, plates were washed 2× with PBS and blocked for 1 hour with 200 μl of complete IMDM (10% FBS, 1% Pen/Strep)/well. Upon removal of the blocking medium, plates were seeded with 250,000 PBMCs derived from three different donors and the following proteins: 1) 1.2 μg/ml CD80-K89D-D90K-T28V-T57V-Fc (concentration associated with max IL-2 production in similar assays), 2) 12 μg/ml CD80-WT-Fc (concentration associated with max IL-2 production in similar assay), and 3) 5 μg/ml anti-human CD28 antibody.
After 24 hour incubation at 37° C. in a CO2 incubator, cells were harvested and stained with viability dye and anti-human CD3 (UCHT1 clone, Biolegend)). Viable CD3+ T cells were flow sorted and used for RNA extraction following Qiagen RNeasy protocol. Isolated RNA was used for a gene expression analysis utilizing Nanostring platform.

[4] = system: EMT6 murine breast cancer cells; test: EMT6 breast cancer model, combination with talazoparib; assay type: in vivo, mouse; details: for Day 20 tumor volume: talazoparib 0.33 mg/kg daily where combined; for % tumor growth inhibition: Day 20, talazoparib 0.33 mg/kg where combined
Protocol: EMT6murine breast cancer cells (3×10^5) were orthotopically implanted in the mammary fat pad of female Balb/c mice. When tumors reached ˜90 mm^3 (day 5 after implantation), mice were randomized and dosed with PBS vehicle control, CD80-K89Q-D90Q-E23C-A26C-Fc (0.1 or 1 mg/kg), and/or 0.33 mg/kg talazoparib (Tala). CD80-D90Q-Fc was dosed on Days 0 and 3, talazoparib was dosed daily. Tumor volume was determined by caliper measurements obtained in 2 dimensions and calculated as width^2×length/2. Error bars are depicted as ±SEM

[5] = CD80-D90Q-Fc 1 mg/kg and/or αPD1 Ab, n=4 per group
[6] = CEFT peptide, compared with CD80-WT-Fc

CD80-D90Q-Fc: variant CD80 ECD (D90Q) fused to human IgG1 Fc
Tumor-reactive T cells (IFNγ ELIspot), Spleen [1, 5]: 881.42 | Tumor-reactive T cells (IFNγ ELIspot), TDLN [1, 5]: 361.08 | Day 13 tumor volume ([1]; CD80-Fc dose 0.1 mg/kg): 776.1 mm^3 | Day 13 tumor volume ([1]; CD80-Fc dose 1 mg/kg): 270.4 mm^3 | % tumor growth inhibition ([1]; CD80-Fc dose 0.1 mg/kg): 61.2% | % tumor growth inhibition ([1]; CD80-Fc dose 1 mg/kg): 86.5%

CD80-K89D-D90K-T28V-T57V-Fc: non-cysteine stabilized variant CD80-Fc fusion protein (K89D, D90K, T28V, T57V)
increase in CD25 expression of CD8+ T cells (human PBMCs (T cells); [6]): ~30% | increase in Ki-67 staining (proliferative capacity) of CD8+ T cells (human PBMCs (T cells); [6]): ~30% | IFNγ production relative to CD80-WT-Fc (human PBMCs (T cells); MSD in cell supernatant): enhanced IFNγ production | % of IFNγ+CD8+ T cells relative to CD80-WT-Fc (human PBMCs (T cells); flow cytometry): higher % of IFNγ+CD8+ T cells | Day 17 tumor volume ([2]; 0.01 mg/kg IV): 1552.0 mm^3 | % tumor growth inhibition ([2]; 0.01 mg/kg): 0.4% | # IFNγ-producing spots, Spleen ([2]; 0.01 mg/kg): 123.1 | # IFNγ-producing spots, TDLN ([2]; 0.01 mg/kg): 51.9 | Day 17 tumor volume ([2]; 0.1 mg/kg IV): 981.2 mm^3 | % tumor growth inhibition ([2]; 0.1 mg/kg): 39.0% | # IFNγ-producing spots, Spleen ([2]; 0.1 mg/kg): 117.9 | # IFNγ-producing spots, TDLN ([2]; 0.1 mg/kg): 132.3 | Day 17 tumor volume ([2]; 1 mg/kg IV): 818.8 mm^3 | % tumor growth inhibition ([2]; 1 mg/kg): 50.1% | # IFNγ-producing spots, Spleen ([2]; 1 mg/kg): 336.4 | # IFNγ-producing spots, TDLN ([2]; 1 mg/kg): 475.2 | Day 17 tumor volume ([2]; 3 mg/kg IV): 133.4 mm^3 | % tumor growth inhibition ([2]; 3 mg/kg): 96.6% | # IFNγ-producing spots, Spleen ([2]; 3 mg/kg): 427.7 | # IFNγ-producing spots, TDLN ([2]; 3 mg/kg): 540.9 | CD8^+ T cell infiltrates (% CD45) ([2]; 0.01 mg/kg): 3.98 % CD45 | CD8^+ T cell infiltrates (% CD45) ([2]; 0.1 mg/kg): 9.59 % CD45 | CD8^+ T cell infiltrates (% CD45) ([2]; 1 mg/kg): 15.91 % CD45 | CD8^+ T cell infiltrates (% CD45) ([2]; 3 mg/kg): 8.19 % CD45 | T1/2 [3]: 106 h | IL7Rα- and TIGIT-encoding genes relative to anti-human CD3-only baseline, compared to CD80-WT-Fc (CD3+ T cells from PBMCs): greater decrease | expression level of OX-40-encoding gene relative to CD80-WT-Fc (CD3+ T cells from PBMCs): enhanced | expression of anti-apoptotic BCL-XL compared to CD80-WT-Fc (CD3+ T cells from PBMCs): enhanced expression | expression of pro-apoptotic CASP8 compared to CD80-WT-Fc (CD3+ T cells from PBMCs): decreased expression | gene expression of IL-2, IL-21 and Lymphotoxin Alpha (LTA) compared to CD80-WT-Fc (CD3+ T cells from PBMCs): enhanced gene expression

CD80-K89Q-D90Q-E23C-A26C-Fc: disulfide stabilized variant CD80-Fc fusion protein (K89Q, D90Q, E23C, A26C)
Day 17 tumor volume ([2]; 0.01 mg/kg IV): 1581.7 mm^3 | % tumor growth inhibition ([2]; 0.01 mg/kg): −1.7% | Day 17 tumor volume ([2]; 0.1 mg/kg IV): 912.2 mm^3 | % tumor growth inhibition ([2]; 0.1 mg/kg): 43.7% | Day 17 tumor volume ([2]; 1 mg/kg IV): 357.2 mm^3 | % tumor growth inhibition ([2]; 1 mg/kg): 81.4% | Day 17 tumor volume ([2]; 3 mg/kg IV): 457.5 mm^3 | % tumor growth inhibition ([2]; 3 mg/kg): 74.6% | Day 20 tumor volume ([4]; CD80-Fc dose 0.1 mg/kg): 1149.2 mm^3 | Day 20 tumor volume ([4]; CD80-Fc dose 1 mg/kg): 637.5 mm^3 | % tumor growth inhibition ([4]; CD80-Fc dose 0.1 mg/kg): 43.1% | % tumor growth inhibition ([4]; CD80-Fc dose 1 mg/kg): 70.5%
